According to US10729710B2, “Catecholamine prodrugs for use in the treatment of Parkinson's disease” (H. Lundbeck A/S, priority 2017, dated 2020):
Structures can show the parent of a compound that is named as a salt.

Tests used:
human D1 receptor = human D1 receptor (Homo sapiens (Human), UniProt P21728); assay: Dopamine D1 receptor agonism, HTRF cAMP assay; assay type: cell-based; details: for Emax: normalized to 30 uM dopamine = 100%
Procedure: Dopamine D1 receptor agonism was measured using a HTRF cAMP from CisBio using the protocol developed by HD Biosciences (China). Briefly, the assay is a homogeneous time resolved-fluorescence resonance energy transfer (HTRF) assay that measures production of cAMP by cells in a competitive immunoassay between native cAMP produced by cells and cAMP-labeled with XL-665. A cryptate-labeled anti-cAMP antibody visualizes the tracer. The assay was performed in accordance with instructions from manufacturer.
Test compounds were added to wells of microplates (384 format). HEK-293 cells expressing the human D1 receptor were plated at 1000 cells/well and incubated 30 min at room temperature. cAMP-d2 tracer was added to wells and followed by addition of Anti-cAMP antibody-cryptate preparation and incubated for 1 h at room temperature in dark. HTRF cAMP was measured by excitation of the donor with 337 nm laser (the “TRF light unit”) and subsequent (delay time 100 microseconds) measurement of cryptate and d2 emission at 615 nm and 665 nm over a time window of 200 microseconds with a 2000 microseconds time window between repeats/100 flashes). HRTF measurements were performed on an Envision microplate reader (PerkinElmer). The HTRF signal was calculated as the emission-ratio at 665 nm over 615 nm. The HTRF ratio readout for test compounds was normalized to 0% and 100% stimulation using control wells with DMSO-solvent or 30 uM dopamine. Test compound potency (EC50) was estimated by nonlinear regression using the sigmoidal dose-response (variable slope) using Xlfit 4 (IDBS, Guildford, Surrey, UK, model 205). y=(A+((B−A)/(1+((C/x)^D)))) where y is the normalized HTRF ratio measurement for a given concentration of test compound, x is the concentration of test compound, A is the estimated efficacy at infinite compound dilution, and B is the maximal efficacy. C is the EC50 value and D is the Hill slope coefficient. EC50 estimates were obtained from an independent experiment and the logarithmic average was calculated. Dopamine D2 Receptor Agonism

human 5-HT2B receptor = human 5-HT2B receptor (Homo sapiens (Human), UniProt P41595); assay: 5-HT2B radioligand binding assay ([125I](±)DOI); details: 0.2 nM [125I](±)DOI, read-out: 5-HT2B binding affinity (% inhibition of control, specific binding at concentration indicated)
Procedure: Membrane homogenates prepared from CHO cells expressing the human 5HT2B receptor were incubated for 60 min at room temperature with 0.2 nM [125I](±)DOI (1-(4-iodo-2, 5-dimethoxyphenyl)propan-2-amine) in the absence or presence of the test compound in a buffer containing 50 mM Tris-HCl (pH 7.4), 5 mM MgCl2, 10 μM pargyline and 0.1% ascorbic acid. Nonspecific binding is determined in the presence of 1 μM (±)DOI. Following incubation, the samples were filtered rapidly under vacuum through glass fiber filters (GF/B, Packard) presoaked with 0.3% polyethyleneimine (PEI) and rinsed several times with ice-cold 50 mM Tris-HCl using a 96-sample cell harvester (Unifilter, Packard). The filters were dried and counted for radioactivity in a scintillation counter (Topcount, Packard) using a scintillation cocktail (Microscint 0, Packard). The results are expressed as a percent inhibition of the control radioligand specific binding. The standard reference compound was (±)DOI, which was tested in each experiment at several concentrations to obtain a competition curve from which its IC50 is calculated.

[1] = PK experiments in rats: plasma compound (I) after oral dosing of prodrugs; assay type: in vivo, Han Wistar rats; details: Wistar rats, FIG. 2, doses equal to 287 μg/kg of compound (I)
Procedure: Plasma was placed on water-ice following collection. Final storage at approximately −70° C.
Mobile phase B: Acetonitrile. […] Flow rate 0.5 mL/min.
The rats had unrestricted access to the diet.
Mobile phase B: Acetonitrile+0.2% formic acid. […] Flow rate 0.3 mL/min.
Han Wistar rats were supplied by Envigo, UK. […] The rats received a standard laboratory diet Teklad 2014C. The rats had unrestricted access to the diet.

[2] = Conversion to compound (I) in fresh human blood; assay type: in vitro ADME; details: fresh blood 37° C., 1 μg/mL, 0-60 minutes, FIG. 8b
Procedure: (§1) Conversion of (Id-ia), (Id-ib), (Id-iia) and (Id-iib) in human blood (average of 3 donors) and rat blood (average of 45 donors) to (I) was shown in fresh blood at 37° C. spiked with 1 μg/mL of (Id-ia), (Id-ib), (Id-iia) and (Id-iib) separately, (I) was measured at 0, 5, 15, 30 and 60 minutes in isolated plasma. Analysis method and Instrumentation as described in Examples 4 and 5 below in the section “Instrumentation used for analysis of compound (I) from dosing of compounds (Ic), (Id-ia), (Id-ib), (Id-iia), (Id-iib), (Id-iab) and (Id-iiab).”

[3] = Conversion to compound (I) in fresh rat blood; assay type: in vitro ADME; details: fresh blood 37° C., 1 μg/mL, 0-60 minutes, FIG. 8a
Procedure: as §1

Sequence of human D1 receptor (P21728 whole entry): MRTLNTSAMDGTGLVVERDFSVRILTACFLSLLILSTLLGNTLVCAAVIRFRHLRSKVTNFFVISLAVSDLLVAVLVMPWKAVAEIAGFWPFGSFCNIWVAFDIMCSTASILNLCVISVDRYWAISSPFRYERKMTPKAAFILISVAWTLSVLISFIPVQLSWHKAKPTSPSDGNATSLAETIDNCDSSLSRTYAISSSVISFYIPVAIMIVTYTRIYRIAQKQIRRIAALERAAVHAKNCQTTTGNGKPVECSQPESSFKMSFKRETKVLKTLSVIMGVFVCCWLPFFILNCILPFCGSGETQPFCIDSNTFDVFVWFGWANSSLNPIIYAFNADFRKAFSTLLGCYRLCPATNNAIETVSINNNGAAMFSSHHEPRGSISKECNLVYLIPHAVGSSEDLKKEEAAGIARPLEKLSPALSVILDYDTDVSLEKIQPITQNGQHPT
Sequence of human 5-HT2B receptor (P41595 whole entry): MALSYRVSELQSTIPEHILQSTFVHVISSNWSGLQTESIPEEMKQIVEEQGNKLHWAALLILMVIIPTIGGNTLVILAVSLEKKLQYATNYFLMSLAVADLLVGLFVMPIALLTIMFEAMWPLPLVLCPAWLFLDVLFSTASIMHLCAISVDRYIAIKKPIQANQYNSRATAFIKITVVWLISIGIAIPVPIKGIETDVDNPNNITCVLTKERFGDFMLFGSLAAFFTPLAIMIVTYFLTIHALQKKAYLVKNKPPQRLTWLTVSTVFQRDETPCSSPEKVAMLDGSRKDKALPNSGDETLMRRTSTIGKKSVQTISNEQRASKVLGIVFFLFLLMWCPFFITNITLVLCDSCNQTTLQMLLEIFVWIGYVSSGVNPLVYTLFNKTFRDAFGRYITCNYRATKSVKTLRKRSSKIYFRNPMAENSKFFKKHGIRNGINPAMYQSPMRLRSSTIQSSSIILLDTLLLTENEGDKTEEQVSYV

| Compound | EC50 (human D1 receptor; HEK-293 cells expressing human D1 receptor, cAMP) [µM] | Emax (human D1 receptor) [%] | inhibition at 10 µM (human 5-HT2B receptor) [%] | plasma profile of compound (I) after oral dosing (in words) [1] | conversion to compound (I) in human blood [2] | conversion to compound (I) in rat blood [3] | in vitro dopaminergic activity (in words) (human D1 receptor; D1 and D2, example 2) |
| --- | --- | --- | --- | --- | --- | --- | --- |
| CCCN1CCC[C@@H]2Cc3c(ccc(O)c3OS(=O)(=O)O)C[C@H]21 [(Id-iia), (4aR,10aR)-7-hydroxy-1-propyl-1,2,3,4,4a,5,10,10a-octahydrobenzo[g]quinolin-6-yl hydrogen sulfate] | > 30 | 49 | 6 | slower absorption rate avoiding rapid peak concentrations accompanied by a sustained exposure of compound (I) in plasma | time dependent conversion to compound (I) | time dependent conversion to compound (I) | – |
| CCCN1CCC[C@@H]2Cc3c(ccc(O)c3O[C@@H]3O[C@H](C(=O)O)[C@@H](O)[C@H](O)[C@H]3O)C[C@H]21 [(Id-ia), (2S,3S,4S,5R,6S)-3,4,5-trihydroxy-6-(((4aR,10aR)-7-hydroxy-1-propyl-1,2,3,4,4a,5,10,10a-octahydrobenzo[g]quinolin-6-yl)oxy)tetrahydro-2H-pyran-2-carboxylic acid] | – | 98 | -25 | slower absorption rate avoiding rapid peak concentrations accompanied by a sustained exposure of compound (I) in plasma | time dependent conversion to compound (I) | time dependent conversion to compound (I) | no in vitro dopaminergic activity |
